This is an account of results in ChEMBL document CHEMBL1133690, “Discovery of a potent, orally bioavailable beta(3) adrenergic receptor agonist, (R)-N-[4-[2-[[2-hydroxy-2-(3-pyridinyl)ethyl]amino]ethyl]phenyl]-4-[4 -[4-(trifluoromethyl)phenyl]thiazol-2-yl]benzenesulfonamide” (J Med Chem, 2000).

Structures are written as SMILES.

Series [1] is described as follows: Half life was measured in dog. It counts as ADME, organism-based, Canis lupus familiaris. The settings on record: in vivo.
A short description of series [2]: Oral bioavailability in dog. It is filed as ADME, organism-based, Canis lupus familiaris. The settings on record: in vivo.
Series [3] can be described thus: Oral bioavailability in rat (dose 10 mg/kg p.o. and 3 mg/kg i.v.). The settings on record: in vivo. It counts as ADME, organism-based.
The nature of series [4]: Area under curve determined in dogs after intravenous administration of 3 mg/kg. It is filed as ADME, organism-based, Canis lupus familiaris. More on the design: dose 3 mg/kg, route intravenous. The conditions noted are these: dog, in vivo.
Series [5] in a line: Area under curve determined in dogs after oral administration of 10 mg/kg. It counts as ADME, organism-based, Canis lupus familiaris. More on the design: dose 10 mg/kg, route oral. The conditions noted are these: dog, in vivo.
A short description of series [6]: Volume distribution (Vdss) was measured in dog. It counts as ADME, organism-based, Canis lupus familiaris. The conditions noted are these: in vivo, read-out: Vdss.
Series [7] in a line: Plasma clearance was measured in dog. It counts as ADME, organism-based, Canis lupus familiaris. The conditions noted are these: read-out: Clp.
For series [8], the target named is T1, Beta-3 adrenergic receptor (Homo sapiens, UniProt P13945). It is filed as cell-based, CHO.
Target sequence in this assay (P13945 whole entry): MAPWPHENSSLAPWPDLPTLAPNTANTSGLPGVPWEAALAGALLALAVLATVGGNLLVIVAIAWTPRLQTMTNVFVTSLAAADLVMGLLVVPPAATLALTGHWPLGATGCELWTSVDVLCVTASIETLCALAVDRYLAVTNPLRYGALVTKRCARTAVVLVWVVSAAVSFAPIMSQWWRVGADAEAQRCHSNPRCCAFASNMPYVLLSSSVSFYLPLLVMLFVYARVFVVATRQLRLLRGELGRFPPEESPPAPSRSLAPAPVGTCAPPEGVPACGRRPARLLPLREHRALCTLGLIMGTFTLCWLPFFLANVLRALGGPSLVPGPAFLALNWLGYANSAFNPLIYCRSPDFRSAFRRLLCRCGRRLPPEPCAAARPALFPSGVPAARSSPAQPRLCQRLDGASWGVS
In series [9] the test system is Monkey. Kind of series: Effective dose for hyperglycerolemia producing increase in serum glycerol accompained by tachycardia in anesthetized rhesus monkeys. It is filed as functional. The settings on record: Cercopithecidae, in Macaca mulatta.
Series [10] has as its target T1, Beta-3 adrenergic receptor. Put plainly: Agonistic efficacy at human beta 3 adrenergic receptor as percent adenylyl cyclase activation relative to isoproterenol. It counts as functional.
Target sequence in this assay (P13945 whole entry, looked up): as the sequence (P13945 whole entry) above
In series [11] the target is T2, Beta-1 adrenergic receptor (Homo sapiens, UniProt P08588). Kind of series: In vitro functional efficacy in stimulating increase in cAMP in chinese hamster ovary (CHO) cells expressing the cloned human beta-1 receptor. It counts as cell-based.
Target sequence in this assay (P08588 whole entry): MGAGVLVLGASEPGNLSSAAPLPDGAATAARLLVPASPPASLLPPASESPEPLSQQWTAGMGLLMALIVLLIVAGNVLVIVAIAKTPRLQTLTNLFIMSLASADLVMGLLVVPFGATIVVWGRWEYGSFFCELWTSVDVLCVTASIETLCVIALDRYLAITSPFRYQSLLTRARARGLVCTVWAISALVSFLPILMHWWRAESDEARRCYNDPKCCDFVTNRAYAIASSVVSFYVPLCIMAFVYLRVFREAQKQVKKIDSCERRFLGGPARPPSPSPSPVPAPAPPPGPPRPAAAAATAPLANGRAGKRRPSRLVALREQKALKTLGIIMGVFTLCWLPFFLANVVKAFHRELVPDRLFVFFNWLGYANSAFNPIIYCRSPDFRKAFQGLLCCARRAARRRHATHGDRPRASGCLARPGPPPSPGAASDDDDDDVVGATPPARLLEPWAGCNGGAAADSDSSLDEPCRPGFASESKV
For series [12], the target named is T2, Beta-1 adrenergic receptor. Kind of series: Agonistic efficacy at human beta 1 adrenergic receptor was assessed from adenylyl cyclase activation given as % of the maximum stimulation with isoproterenol at 10 uM. It is filed as functional.
Target sequence in this assay (P08588 whole entry, looked up): as the sequence (P08588 whole entry) above
The target of series [13] is T3, Beta-2 adrenergic receptor (Homo sapiens, UniProt P07550). Kind of series: In vitro functional efficacy in stimulating increase in cAMP in chinese hamster ovary (CHO) cells expressing the cloned human beta-2 receptor. It is filed as cell-based.
Target sequence in this assay (P07550 whole entry): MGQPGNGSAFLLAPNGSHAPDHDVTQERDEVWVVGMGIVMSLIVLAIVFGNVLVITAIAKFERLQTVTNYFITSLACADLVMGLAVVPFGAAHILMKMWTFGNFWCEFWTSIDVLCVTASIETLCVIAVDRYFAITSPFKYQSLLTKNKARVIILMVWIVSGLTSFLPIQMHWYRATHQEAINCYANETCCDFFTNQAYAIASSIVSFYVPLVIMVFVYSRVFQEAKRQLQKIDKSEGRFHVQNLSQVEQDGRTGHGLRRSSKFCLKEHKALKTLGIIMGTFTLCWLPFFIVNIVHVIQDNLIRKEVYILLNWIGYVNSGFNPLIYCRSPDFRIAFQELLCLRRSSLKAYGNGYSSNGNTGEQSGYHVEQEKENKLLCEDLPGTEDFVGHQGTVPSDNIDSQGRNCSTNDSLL
The target of series [14] is T1, Beta-3 adrenergic receptor. Kind of series: In vitro functional efficacy as increased cAMP in chinese hamster ovary (CHO) cells expressing human beta-3 receptor. It counts as cell-based.
Target sequence in this assay (P13945 whole entry): as the sequence (P13945 whole entry) above
For series [15], the target named is T3, Beta-2 adrenergic receptor. Put plainly: biochemical.
Target sequence in this assay (P07550 whole entry): as the sequence (P07550 whole entry) above
Description: Binding affinity was evaluated on chinese hamster ovary (CHO) cells expressing the cloned human beta-2 adrenergic receptor in the presence of [125I]- iodocyanopindolol.
In series [16] the target is T2, Beta-1 adrenergic receptor. Kind of series: biochemical.
Target sequence in this assay (P08588 whole entry): as the sequence (P08588 whole entry) above
Description: Binding affinity was evaluated on chinese hamster ovary (CHO) cells expressing the cloned human beta-1 adrenergic receptor in the presence of [125I]- iodocyanopindolol.
Series [17] is described as follows: Volume of distribution (Vdss) was measured in dog. It counts as ADME, organism-based, Canis lupus familiaris. The conditions noted are these: in vivo, read-out: Vdss.
For series [18], the target named is T3, Beta-2 adrenergic receptor. Kind of series: Agonistic efficacy at human beta 2 adrenergic receptor was assessed from adenylyl cyclase activation given as % of the maximum stimulation with isoproterenol. It counts as functional.
Target sequence in this assay (P07550 whole entry, looked up): as the sequence (P07550 whole entry) above

By half-life is commonly meant the time needed for the level to fall by half in the phase considered. Usually bioavailability stands for dose-corrected exposure relative to a reference, in per cent. As a reminder, the AUC is concentration integrated over time. As a reminder, the IC50 is the concentration needed to halve the response being measured. Usually ED50 stands for the dose that gives a 50% effect, or the effect in half of the subjects. Broadly, the EC50 is the concentration needed to bring the measured effect to its halfway point. For the compound `O=S(=O)(Nc1ccc(CCNC[C@H](O)c2cccnc2)cc1)c1ccc(-c2nc(-c3ccc(C(F)(F)F)cc3)cs2)cc1`, the half-life in [1] was 13.5 h. The bioavailability in [2] worked out at 38%; in series [3], 17%. Moreover, the AUC is 1930 ng·h/mL in [4] and 2270 ng·h/mL in [5]. For the same compound, the Vd in [6] was found to be 31.3 L/kg. Moreover, the clearance in [7] was determined as 26.8 mL/min/kg. In series [8], this compound gave an IC50 of 46 nM. The ED50 in [9] came to 0.26 mg/kg. Also, the ACT in [10] turned out to be 94%; in series [12], 24%. Further, the EC50 amounted to 4800 nM in [11] and 2400 nM in series [13].

Regarding `O=S(=O)(Nc1ccc(CCNC[C@H](O)c2cccnc2)cc1)c1ccc(-c2nc(-c3cc(F)c(F)c(F)c3)cs2)cc1`, the half-life in series [1] is 8 h. Moreover, in series [2], the bioavailability stood at 27%. Moreover, the AUC in series [4] was 2470 ng·h/mL; in series [5] it was 2230 ng·h/mL. Further, the Vd in [6] worked out at 14.1 L/kg. Further, the clearance in series [7] was determined as 20.5 mL/min/kg. This compound came in with an EC50 in series [14] of 6.3 nM. Further, the ACT in series [10] stood at 100%; in series [12], 20%. Besides, the IC50 in series [15] was 5000 nM; in series [16], 2000 nM.

The compound `O=S(=O)(Nc1ccc(CCNC[C@H](O)c2cccnc2)cc1)c1ccc(-c2nc(-c3ccccc3C(F)(F)F)cs2)cc1` gave a 50% effective concentration (EC50) in series [14] of 53 nM. Moreover, in series [10], the ACT is 82%. Also, the IC50 in series [15] turned out to be 1800 nM; in [16], 1900 nM.

In turn, `O=S(=O)(Nc1ccc(CCNC[C@H](O)c2cccnc2)cc1)c1ccc(-c2nc(-c3cccc(F)c3F)cs2)cc1` yielded an EC50 in series [14] of 7.6 nM. For the same compound, the values for the ACT in [10] and in [12] were 99% and 6%, respectively. Also, the IC50 was 760 nM in series [15] and 2600 nM in series [16].

With `O=S(=O)(Nc1ccc(CCNC[C@H](O)c2cccnc2)cc1)c1ccc(-c2nc(-c3ccc(F)cc3F)cs2)cc1`, in series [14], a half-maximal effect (EC50) was put at 19 nM. The results for the ACT in series [10] and in [12] were 87% and 7%, respectively. The IC50 in series [15] stood at 2600 nM; in series [16], 2500 nM.

In [14], `O=S(=O)(Nc1ccc(CCNC[C@H](O)c2cccnc2)cc1)c1ccc(-c2nc(-c3cccc(C(F)(F)F)c3)cs2)cc1` returned an EC50 of 6.9 nM. The ACT was 100% in series [10] and 17% in [12]. Besides, the IC50 in series [15] was determined as 980 nM; in series [16] it was 1800 nM.

For `O=S(=O)(Nc1ccc(CCNC[C@H](O)c2cccnc2)cc1)c1ccc(-c2nc(-c3ccc(F)c(F)c3)cs2)cc1`, the half-life in [1] was 7.5 h. Moreover, the bioavailability in series [2] is 36%. Further, the values for the AUC in series [4] and in series [5] were 1720 ng·h/mL and 2070 ng·h/mL, respectively. In [17], the Vd was found to be 19 L/kg. The clearance in series [7] amounted to 29.3 mL/min/kg. For the same compound, the IC50 in [8] was determined as 20 nM; in [15] it was 1700 nM; in series [16], 1700 nM. Moreover, the EC50 is 7.1 nM in series [14], 2600 nM in [11] and 1800 nM in series [13]. For the same compound, the ACT was 92% in [10] and 12% in [18].

As for `O=S(=O)(Nc1ccc(CCNC[C@H](O)c2cccnc2)cc1)c1ccc(-c2nc(-c3ccc(OC(F)(F)F)cc3)cs2)cc1`, the half-life in series [1] was 10.3 h. Also, the bioavailability in [2] came to 53%; in series [3], 7%. The AUC is 3530 ng·h/mL in series [4] and 6280 ng·h/mL in series [5]. Also, in series [6], the Vd was 12.8 L/kg. Besides, the clearance in series [7] came to 14.3 mL/min/kg. Moreover, the IC50 in series [8] stood at 30 nM; in [15], 1200 nM; in series [16], 8400 nM. In series [9], this compound yielded an ED50 of 0.14 mg/kg. Besides, the values for the EC50 in series [14], in series [11] and in series [13] were 4.3 nM, 2700 nM and 1400 nM, respectively. The values for the ACT in [10], in series [12] and in series [18] were 93%, 24% and 18%, respectively.
